Experimental data published in patent US20240317777A1, “NOVEL MACROCYCLIC AMINOPYRAZOLE COMPOUNDS AS CDK2 INHIBITORS” (Accutar Biotechnology Inc., priority 2023, published 2024).
pIC50: −log10 of the molar value.

Key:
Type in all cases: cell-based
[1] = test system: Phospho-Rb (Ser807/811) in OVCAR3 cells; experiment: Phospho-Rb expression inhibition in OVCAR3 cells quantified by In Cell Western; conditions: Homo sapiens, OVCAR-3, 24 hours, read-out: OVCAR-3 pRb IC50
Experimental: Phospho-Rb Expression Inhibition in OVCAR3 Cells Quantified by in Cell Western
OVCAR3 cells were obtained from American Type Culture Collection (ATCC, HTB-161). OVCAR3 cells were plated in 96-well plates (VWR #10062-900, or Corning #3904) in 90 uL culture medium at a density of 20,000 cells/well in the RPM11640 growth medium containing 10% FBS and 1% Penicillin Streptomycin, and then incubated at 37° C. overnight. The following day, the test compound was administered to the cells by using 1000× compound stock solution prepared in DMSO at various concentrations. 1000× compound stock solution was first diluted in culturing medium to 10x, then 10 uL compound medium was added to each well in the cell plates. After administration of the compound, the cells were then incubated at 37° C. for 24 hours. Upon completion, the cells were washed with PBS briefly. 150 uL/well of 4% formaldehyde was added and the plates were incubated at room temperature for 20 mins. The cells were washed with PBS briefly, and permeabilized with 150 uL/well of ice cold 100% methanol for 10 mins. The cells were washed with PBS briefly and blocked with 100 uL/well LI-COR blocking buffer for 1 hr at room temperature with gentle shaking. The cells were incubated overnight at 4° C. with 50 uL primary antibody rabbit anti-Phospho-Rb (Ser807/811) (1:500, Cell Signaling, #8516) and anti-Rb (1:200, Santa Cruz, sc-73598) diluted in Intercept Blocking Buffer (LI-COR, #927-60001) containing 0.1% Tween 20. The next day, the cells were washed with 200 uL PBS containing 0.1% Tween 20, 5×5 mins at room temperature with gentle shaking, and incubated with 50 uL secondary antibody, IRDye® 800CW Goat anti-Rabbit IgG (1:1000, LI-COR, #926-32211) and IRDye® 680RD Goat anti-Mouse IgG (1:1000, LI-COR, #926-68070), in LI-COR blocking buffer with 0.2% Tween 20 for 1 hr at room temperature with gentle shaking. The cells were washed with 200 uL PBS containing 0.1% Tween 20, 5×5 mins at room temperature with gentle shaking. The cells were washed with PBS for 5 mins. 100 uL fresh PBS was added to each well and the plates were imaged on a LI-COR Odyssey CLX plate reader.

CCNE1-normal SKOV3 cells = experiment: Cell growth inhibition of CCNE1-normal SKOV3 cells (CellTiter-Glo); conditions: Homo sapiens, SK-OV-3, 144 h, 6 days
Experimental: Cell Growth Inhibition of CCNE1-Normal SKOV3 Cells
(§1) SKOV3 cells were obtained from American Type Culture Collection (ATCC, HTB-77). SKOV3 cells were seeded in 96-well plates at 1000 cells/well in 90 μl of RPM11640 growth medium containing 10% FBS and 1% Penicillin Streptomycin, and then incubated at 37° C. overnight. The following day, the test compound was administered to the cells by using 1000× compound stock solution prepared in DMSO at various concentrations. 1000× compound stock solution was first diluted in culturing medium to 10x, then 10 uL compound medium was added to each well in the cell plates. After administration of the compound, the cells were then incubated at 37° C. for 6 days. Upon completion, the plates were equilibrated at room temperature for approximately 10 minutes. 100 ul of CellTiter-Glo® Reagent (Promega) was added to each well. The plates were then incubated at room temperature for 10 minutes and luminescence was recorded by EnSpire plate reader (PerkinElmer).

[2] = test system: CCNE1-amplified OVCAR3 cells; experiment: Cell growth inhibition of CCNE1-amplified OVCAR3 cells (CellTiter-Glo); conditions: Homo sapiens, OVCAR-3, 144 h, 6 days
Experimental: Cell Growth Inhibition of CCNE1-Amplified OVCAR3 Cells
as §1, with “OVCAR3 cells” for “SKOV3 cells were obtained from American Type Culture Collection (ATCC, HTB-77). SKOV3 cells”, “at 2000” for “at 1000”

SMILES | pIC50 [1] | pIC50 (CCNE1-normal SKOV3 cells) | pIC50 [2]
O=C1NC2(CCCOc3cc(ccn3)Nc3cc([nH]n3)[C@H]3CC[C@H](C3)O1)CC2 [Compound 33, (1'S,3′R,Z)-spiro[cyclopropane-1 9′-5,12-dioxa-3,10-diaza-4(4,2)-pyridina-2(3,5)-pyrazola-1(1,3)-cyclopentanacyclododecaphan]-11′-one] | 7.30 to 8.00 | < 5.90 | 6.60 to 7.30
O=C1NC23CC(CCCc4cc(cc(C(F)F)n4)Nc4cc(n[nH]4)[C@H]4CC[C@H](C4)O1)(C2)C3 [Compound 98, (1^1S,1^3R,Z)-4^6-(difluoromethyl)-2^1H-11-oxa-3,9-diaza-4(4,2)-pyridina-2(3,5)-pyrazola-8(1,3)-bicyclo[1.1.1]pentana-1(1,3)-cyclopentanacycloundecaphan-10-one] | ≥ 8.70 | 7.30 to 8.00 | ≥ 8.70
C[C@H]1CCC(C)(C)NC(=O)O[C@@H]2CC[C@@H](C2)c2cc([nH]n2)Nc2ccnc(c2)O1 [Compound 113, (1^1S,1^3R,6S,Z)-6,9,9-trimethyl-2^1H-5,12-dioxa-3,10-diaza-4(4,2)-pyridina-2(3,5)-pyrazola-1(1,3)-cyclopentanacyclododecaphan-11-one] | ≥ 8.70 | 7.30 to 8.00 | 8.00 to 8.70
O=C1NC23CC(CCCc4cncc(c4)Nc4cc(n[nH]4)[C@H]4CC[C@H](C4)O1)(C2)C3 [Compound 118, (1^1S,1^3R,Z)-2^1H-11-oxa-3,9-diaza-4(3,5)-pyridina-2(3,5)-pyrazola-8(1,3)-bicyclo[1.1.1]pentana-1(1,3)-cyclopentanacycloundecaphan-10-one] | ≥ 8.70 | 7.30 to 8.00 | ≥ 8.70
C[C@H]1CCC(C)(C)NC(=O)O[C@@H]2CC[C@@H](C2)c2cc([nH]n2)Nc2cncc(c2)O1 [Compound 124, (1^1S,1^3R,6S,Z)-6,9,9-trimethyl-2^1H-5,12-dioxa-3,10-diaza-4(3,5)-pyridina-2(3,5)-pyrazola-1(1,3)-cyclopentanacyclododecaphan-11-one] | ≥ 8.70 | 7.30 to 8.00 | 8.00 to 8.70
C[C@@H]1/C=C/COc2cc(ccn2)Nc2cc(n[nH]2)[C@H]2CC[C@H](C2)OC(=O)N1 [Compound 138, (1^1S,1^3R,2^4Z,7E,9R)-9-methyl-2^1H-5,12-dioxa-3,10-diaza-4(4,2)-pyridina-2(3,5)-pyrazola-1(1,3)-cyclopentanacyclododecaphan-7-en-11-one] | 7.30 to 8.00 | < 5.90 | 6.60 to 7.30
O=C1NC2CC(CCc3cncc(c3)Nc3cc(n[nH]3)[C@H]3CC[C@H](C3)O1)C2 [Compound 141, (1^1S,1^3R,7^1R,7^3R,Z)-2^1H-10-oxa-3,8-diaza-4(3,5)-pyridina-2(3,5)-pyrazola-1(1,3)-cyclopentana-7(1,3)-cyclobutanacyclodecaphan-9-one] | ≥ 8.70 | 6.60 to 7.30 | 8.00 to 8.70
O=C1NC2(CCCCc3cncc(c3)Nc3cc(n[nH]3)[C@H]3CC[C@H](C3)O1)CC2 [Compound 142, (1′S,3′R,Z)-spiro[cyclopropane-1,9′-12-oxa-3,10-diaza-4(3,5)-pyridina-2(3,5)-pyrazola-1(1,3)-cyclopentanacyclododecaphan]-11′-one] | 8.00 to 8.70 | 5.90 to 6.60 | 7.30 to 8.00
C[C@@H]1Oc2cc(ccn2)Nc2cc(n[nH]2)[C@H]2CC[C@H](C2)OC(=O)N[C@H]2C[C@@H]1C2 [Compound 145, (1^1S,1^3R,7^1S,7^3R,6S,Z)-6-methyl-2^1H-5,10-dioxa-3,8-diaza-4(4,2)-pyridina-2(3,5)-pyrazola-1(1,3)-cyclopentana-7(1,3)-cyclobutanacyclodecaphan-9-one] | 6.60 to 7.30 | < 5.90 | 6.60 to 7.30
C[C@H]1Oc2cncc(c2)Nc2cc(n[nH]2)[C@H]2CC[C@H](C2)OC(=O)N[C@H]2C[C@@H]1C2 [Compound 147, (1^1S,1^3R,7^1S,7^3S,6R,Z)-6-methyl-2^1H-5,10-dioxa-3,8-diaza-4(3,5)-pyridina-2(3,5)-pyrazola-1(1,3)-cyclopentana-7(1,3)-cyclobutanacyclodecaphan-9-one] | 6.60 to 7.30 | < 5.90 | 6.60 to 7.30
C[C@H]1C/C=C\C(F)(F)c2cc(ccn2)Nc2cc(n[nH]2)[C@H]2CC[C@H](C2)OC(=O)N1 [Compound 167, (1^1S,1^3R,2^4Z,9S)-5,5-difluoro-9-methyl-2^1H-12-oxa-3,10-diaza-4(4,2)-pyridina-2(3,5)-pyrazola-1(1,3)-cyclopentanacyclododecaphan-6-en-11-one] | 8.00 to 8.70 | 5.90 to 6.60 | 7.30 to 8.00
C[C@@H]1C/C=C\C(F)(F)c2cc(ccn2)Nc2cc(n[nH]2)[C@H]2CC[C@H](C2)OC(=O)N1 [Compound 168, (1^1S,1^3R,2^4Z,9R)-5,5-difluoro-9-methyl-2^1H-12-oxa-3,10-diaza-4(4,2)-pyridina-2(3,5)-pyrazola-1(1,3)-cyclopentanacyclododecaphan-6-en-11-one] | 7.30 to 8.00 | < 5.90 | 6.60 to 7.30
O=C1NC2CC(COc3cncc(c3)Nc3cc(n[nH]3)[C@H]3CC[C@H](C3)O1)C2 [Compound 171, (1^1S,1^3R,7^1R,7^3S,Z)-2^1H-5,10-dioxa-3,8-diaza-4(3,5)-pyridina-2(3,5)-pyrazola-1(1,3)-cyclopentana-7(1,3)-cyclobutanacyclodecaphan-9-one] | ≥ 8.70 | 5.90 to 6.60 | 8.00 to 8.70
C[C@H]1CCCOc2cc(c(F)cn2)Nc2cc(n[nH]2)[C@H]2CC[C@H](C2)OC(=O)N1 [Compound 174, (1^1S,1^3R,9S,Z)-4^5-fluoro-9-methyl-2^1H-5,12-dioxa-3,10-diaza-4(4,2)-pyridina-2(3,5)-pyrazola-1(1,3)-cyclopentanacyclododecaphan-11-one] | 6.60 to 7.30 | < 5.90 | 6.60 to 7.30
C[C@H]1CCCOc2nccc(c2F)Nc2cc(n[nH]2)[C@H]2CC[C@H](C2)OC(=O)N1 [Compound 176, (1^1S,1^3R,9S,Z)-4^3-fluoro-9-methyl-2^1H-5,12-dioxa-3,10-diaza-4(4,2)-pyridina-2(3,5)-pyrazola-1(1,3)-cyclopentanacyclododecaphan-11-one] | 8.00 to 8.70 | 5.90 to 6.60 | 7.30 to 8.00
[2H]C1([2H])CC[C@H](C)NC(=O)O[C@@H]2CC[C@@H](C2)c2cc([nH]n2)Nc2cc(F)nc(c2)O1 [Compound 179, (1^1S,1^3R,9S,Z)-4^6-fluoro-9-methyl-2^1H-5,12-dioxa-3,10-diaza-4(4,2)-pyridina-2(3,5)-pyrazola-1(1,3)-cyclopentanacyclododecaphan-11-one-6,6-d2] | 7.30 to 8.00 | < 5.90 | 6.60 to 7.30
[2H]C1([2H])CC(F)(F)[C@H](C)NC(=O)O[C@@H]2CC[C@@H](C2)c2cc([nH]n2)Nc2ccnc(c2)O1 [Compound 182, (1^1S,1^3R,9S,Z)-8,8-difluoro-9-methyl-2^1H-5,12-dioxa-3,10-diaza-4(4,2)-pyridina-2(3,5)-pyrazola-1(1,3)-cyclopentanacyclododecaphan-11-one-6,6-d2] | 8.00 to 8.70 | 5.90 to 6.60 | 7.30 to 8.00
